Earlier results on five molecules are cited in patent publication US6469022B1, “Method, compositions and kits for increasing the oral bioavailability of pharmaceutical agents” (Smith Kline Beecham, Corporation, priority 1997, dated 2002).

Each structure is given as a SMILES string. Entries after “also recorded” stand apart in the source; their conditions may differ.

For series [1] the following is noted: WO97/15269, Broder et al.
In series [2] the test system is protein isoprenylation.
Series [3] deals with tumour. Conditions: up to 160 mg/kg/day, Stuffness et al.
For series [4], the system named is tubulin.
For series [5], the system named is metastatic breast cancer. Conditions: taxane-failure patients with metastatic breast cancer; continuous 96-hour infusion every three weeks.
For series [6] the following is noted: oral administration.
For series [7] the following is noted: in vivo.
Series [8] addresses P-glycoprotein (Homo sapiens, UniProt P08183).

Sequence of P-glycoprotein (P08183 whole entry): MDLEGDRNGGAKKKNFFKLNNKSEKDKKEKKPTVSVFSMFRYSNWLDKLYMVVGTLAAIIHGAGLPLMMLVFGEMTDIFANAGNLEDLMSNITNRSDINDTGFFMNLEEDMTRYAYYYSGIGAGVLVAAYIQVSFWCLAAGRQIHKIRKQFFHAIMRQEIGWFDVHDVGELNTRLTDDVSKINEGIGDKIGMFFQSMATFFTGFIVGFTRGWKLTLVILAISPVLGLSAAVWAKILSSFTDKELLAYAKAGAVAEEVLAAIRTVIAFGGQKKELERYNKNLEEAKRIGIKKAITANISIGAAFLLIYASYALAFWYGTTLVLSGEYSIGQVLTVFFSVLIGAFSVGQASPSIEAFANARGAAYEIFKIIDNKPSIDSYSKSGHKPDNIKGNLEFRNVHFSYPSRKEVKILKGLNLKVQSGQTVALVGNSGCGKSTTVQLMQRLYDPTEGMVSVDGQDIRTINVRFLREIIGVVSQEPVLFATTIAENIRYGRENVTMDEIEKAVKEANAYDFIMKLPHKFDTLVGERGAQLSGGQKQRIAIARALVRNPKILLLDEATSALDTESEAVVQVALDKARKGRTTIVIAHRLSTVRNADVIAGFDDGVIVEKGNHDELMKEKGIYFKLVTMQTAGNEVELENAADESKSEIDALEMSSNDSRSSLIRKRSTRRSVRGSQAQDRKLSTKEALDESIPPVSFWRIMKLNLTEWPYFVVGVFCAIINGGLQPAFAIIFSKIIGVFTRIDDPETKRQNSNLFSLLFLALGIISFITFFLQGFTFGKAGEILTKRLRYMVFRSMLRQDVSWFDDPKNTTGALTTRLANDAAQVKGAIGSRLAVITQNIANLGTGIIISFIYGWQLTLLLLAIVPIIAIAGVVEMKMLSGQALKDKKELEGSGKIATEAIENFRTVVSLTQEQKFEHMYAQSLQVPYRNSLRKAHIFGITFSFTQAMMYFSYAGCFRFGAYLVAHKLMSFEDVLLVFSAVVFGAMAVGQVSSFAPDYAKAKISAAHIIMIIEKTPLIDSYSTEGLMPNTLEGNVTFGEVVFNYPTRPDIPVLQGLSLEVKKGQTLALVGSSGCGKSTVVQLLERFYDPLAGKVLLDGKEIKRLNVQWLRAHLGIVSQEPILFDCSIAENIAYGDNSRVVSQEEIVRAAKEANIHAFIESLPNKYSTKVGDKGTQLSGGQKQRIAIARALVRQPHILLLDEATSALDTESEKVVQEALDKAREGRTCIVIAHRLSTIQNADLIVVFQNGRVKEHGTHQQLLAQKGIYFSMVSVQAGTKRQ

Turning to `CC(=O)[C@H]1CC[C@H]2[C@@H]3CCC4=CC(=O)CC[C@]4(C)[C@H]3CC[C@]12C` [progesterone], in series [1], the oral bioavailability-enhancing activity entry is listed as “none”.

In the case of `CC(=O)O[C@H]1C(=O)[C@@]2(C)[C@H]([C@H](OC(=O)c3ccccc3)[C@]3(O)C[C@H](OC(=O)[C@H](O)[C@@H](NC(=O)c4ccccc4)c4ccccc4)C(C)=C1C3(C)C)[C@]1(OC(C)=O)CO[C@@H]1C[C@@H]2O` [paclitaxel, 5β,20-epoxy-1,2α,4,7β,10β,13α-hexa-hydroxytax-11-en-9-one 4,10-diacetate 2-benzoate 13-ester with (2R,3S)-N-benzoyl-3-phenylisoserine], the “level at which inhibition of protein isoprenylation occurs” value in series [2] is “about 0.03 μM; also recorded: about 25 ng/ml”. Further, the “antitumour activity on oral administration” value in series [3] is “no evidence of antitumour activity”. In addition, the “level at which inhibition of tubulin disassembly occurs” value in series [4] was “about 0.1 μM; also recorded: about 85 ng/ml”. Further, in series [5], the response rate was 27%. In series [6], the “absorbed when administered orally” value was “less than 1%”.

For `COc1cc2c(cc1OC)CN(CCc1ccc(NC(=O)c3cccc4c(=O)c5cccc(OC)c5[nH]c34)cc1)CC2` [GF120918, 9,10-dihydro-5-methoxy-9oxo-N-[4-[2-(1,2,3,4-tetrahydro-6,7,-dimethoxy-2-isoquinolinyl)ethyl]phenyl]-4-acridinecarboxamide], the “bioavailability across the gut” value in series [7] is recorded as “very poor bioavailability”. Moreover, the P-glycoprotein inhibition entry in series [8] is “P-glycoprotein inhibitor”.

`CC(=O)N1CCN(c2ccc(OCC3COC(Cn4ccnc4)(c4ccc(Cl)cc4Cl)O3)cc2)CC1` (stereo not shown) [ketoconazole]: the oral bioavailability-enhancing activity result in series [1] is “significant”.

In the case of `OCCN(CCO)c1nc(N2CCCCC2)c2nc(N(CCO)CCO)nc(N3CCCCC3)c2n1` [dipyridamole], the oral bioavailability-enhancing activity result in series [1] is reported as “less enhancing activity”.
